According to US9630922B2, “3-spiro-7-hydroxamic acid tetralins as HDAC inhibitors” (Forma Therapeutics, Inc., priority 2015, dated 2017):

Target: T1, HDAC6 (Homo sapiens, UniProt Q9UBN7)
T1 construct: Full length human recombinant HDAC6 protein was expressed in baculoviral system; made in house; host or cells: baculoviral system
T1 sequence (Q9UBN7 1-1215): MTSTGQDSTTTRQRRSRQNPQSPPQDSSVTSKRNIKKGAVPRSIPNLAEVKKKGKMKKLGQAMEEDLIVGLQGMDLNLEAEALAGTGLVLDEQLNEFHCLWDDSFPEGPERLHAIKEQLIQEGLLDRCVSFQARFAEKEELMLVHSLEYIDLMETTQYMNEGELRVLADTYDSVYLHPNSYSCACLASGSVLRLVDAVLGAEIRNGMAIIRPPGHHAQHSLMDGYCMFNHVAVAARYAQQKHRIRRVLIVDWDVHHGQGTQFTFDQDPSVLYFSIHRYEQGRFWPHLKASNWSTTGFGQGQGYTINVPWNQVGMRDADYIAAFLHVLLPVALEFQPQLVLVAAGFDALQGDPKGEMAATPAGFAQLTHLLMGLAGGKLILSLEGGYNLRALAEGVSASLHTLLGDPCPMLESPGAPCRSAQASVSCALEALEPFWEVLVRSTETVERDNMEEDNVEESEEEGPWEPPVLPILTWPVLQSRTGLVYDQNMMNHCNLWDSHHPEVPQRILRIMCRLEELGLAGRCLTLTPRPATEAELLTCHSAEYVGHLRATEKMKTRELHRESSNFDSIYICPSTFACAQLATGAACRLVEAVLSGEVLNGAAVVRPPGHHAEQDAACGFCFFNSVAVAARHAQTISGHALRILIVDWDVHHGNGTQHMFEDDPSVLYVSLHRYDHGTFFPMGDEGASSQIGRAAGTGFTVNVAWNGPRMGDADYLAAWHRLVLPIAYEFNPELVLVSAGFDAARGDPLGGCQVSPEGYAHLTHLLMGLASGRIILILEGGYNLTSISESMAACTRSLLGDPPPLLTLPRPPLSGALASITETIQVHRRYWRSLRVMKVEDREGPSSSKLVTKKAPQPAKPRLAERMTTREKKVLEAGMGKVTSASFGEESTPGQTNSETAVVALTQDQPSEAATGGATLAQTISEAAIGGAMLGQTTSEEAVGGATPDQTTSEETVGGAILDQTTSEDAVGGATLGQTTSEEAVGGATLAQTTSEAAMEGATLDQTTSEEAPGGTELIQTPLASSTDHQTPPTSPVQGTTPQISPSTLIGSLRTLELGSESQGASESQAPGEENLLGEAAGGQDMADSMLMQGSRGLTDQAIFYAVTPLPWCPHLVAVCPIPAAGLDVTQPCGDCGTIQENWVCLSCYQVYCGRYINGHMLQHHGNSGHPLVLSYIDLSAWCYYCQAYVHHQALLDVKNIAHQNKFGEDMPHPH
Assay: In vitro Histone Deacetylase Assay (enzymatic HDAC6 electrophoretic mobility shift assay)
Format: biochemical
Conditions: full length human recombinant HDAC6, 1 nM enzyme, 2 μM peptide substrate RHKK(Ac)-NH2, 25° C.; read-out: HDAC6 activity range
Method: The enzymatic HDAC6 assay was performed using electrophoretic mobility shift assay. Full length human recombinant HDAC6 protein was expressed in baculoviral system and purified by affinity chromatography. The enzymatic reactions were assembled in 384 well plates in a total volume of 25 μL in a reaction buffer composing: 100 mM HEPES, pH7.5, 25 mM KCl, 0.1% bovine serum albumin, 0.01% Triton X-100, 1% DMSO (from compounds) 2 μM of the fluorescently labeled peptide substrate and enzyme. The enzyme was added at a final concentration of 1 nM. The peptide substrate RHKK(Ac)—NH2 was used. The compounds were tested at 12 concentrations spaced by 3× dilution intervals. Negative control samples (0%-inhibition in the absence of inhibitor) and positive control samples (100%-inhibition) were assembled in replicates of four in each assay plate. The reactions were incubated at 25° C. and quenched by the addition of 45 μL of termination buffer (100 mM HEPES, pH 7.5, 0.01% Triton X-100, 0.05% SDS).
The terminated assay plates were analyzed on LabChip® 3000 microfluidic electrophoresis instrument (Perkin Elmer/Caliper Life Sciences). The fluorescence intensity of the electrophoretically separated de-acetylated product and substrate peptide was measured. Activity in each sample was determined as the product to sum ratio (PSR): P/(S+P), where P is the peak height of the product peptide and S is the peak height of the substrate peptide. Percent inhibition (Pinh) is determined using the following equation:
Pinh=(PSR0%−PSRinh)/(PSR0%−PSR100%)*100, where PSRinh is the product sum ratio in the presence of inhibitor, PSR0% is the average product sum ration in the absence of inhibitor and PSR100% is the average product sum ratio in 100%-inhibition control samples. The IC50 values of inhibitors were determined by fitting the %-inhibition curves with 4 parameter dose-response model using XLfit 4 software.
As set forth in Table-31, below, IC50 values are defined as follows: IC50≦0.1 μM (+++); IC50>0.1 μM and ≦0.5 μM (++); IC50>0.5 μM (+).

SMILES	IC50 [nM]
COCCn1c(CN2CC[C@@]3(CCc4cc(C(=O)NO)ccc4C3)C2=O)nc2ccccc21 [Compound I-23, (S)-N-hydroxy-1′-((1-(2-methoxyethyl)-1H-benzo[d]imidazol-2-yl)methyl)-2′-oxo-3,4-dihydro-1H-spiro[naphthalene-2,3′-pyrrolidine]-6-carboxamide]	≤ 100
O=C(NO)c1ccc2c(c1)CC[C@@]1(CCN(C3CCCC3)C1=O)C2 [Compound I-164, (S)-1′-cyclopentyl-N-hydroxy-2′-oxo-3,4-dihydro-1H-spiro[naphthalene-2,3′-pyrrolidine]-6-carboxamide]	100 to 500
CS(=O)(=O)c1ccc(CN2CC[C@]3(CCc4cc(C(=O)NO)ccc4C3)C2=O)cc1 [Compound I-88, (R)-N-hydroxy-1′-(4-(methylsulfonyl)benzyl)-2′-oxo-3,4-dihydro-1H-spiro[naphthalene-2,3′-pyrrolidine]-6-carboxamide]	≤ 100
CCN1CC2(CCc3cc(C(=O)NO)ccc3C2)CC1=O (single isomer, unassigned) [Compound I-206]	≤ 100
COc1cccc(N2CC[C@]3(CCc4cc(C(=O)NO)ccc4C3)C2=O)c1F [Compound I-125, (2R)-1′-(2-fluoro-3-methoxyphenyl)-N-hydroxy-2′-oxo-3,4-dihydro-1H-spiro[naphthalene-2,3′-pyrrolidine]-6-carboxamide]	≤ 100
CC(C)c1ccc(N2CC[C@]3(CCc4cc(C(=O)NO)ccc4C3)C2=O)cn1 [Compound I-94, (R)-N-hydroxy-1′-(6-isopropylpyridin-3-yl)-2′-oxo-3,4-dihydro-1H-spiro[naphthalene-2,3′-pyrrolidine]-6-carboxamide]	≤ 100
CN(C)c1ccc(N2CC[C@]3(CCc4cc(C(=O)NO)ccc4C3)C2=O)cc1 [Compound I-93, (R)-1′-(4-(dimethylamino)phenyl)-N-hydroxy-2′-oxo-3,4-dihydro-1H-spiro[naphthalene-2,3′-pyrrolidine]-6-carboxamide]	≤ 100
O=C(NO)c1ccc2c(c1)CC[C@]1(CCN(Cc3cccc(F)c3)C1=O)C2 [Compound I-53, (R)-1′-(3-fluorobenzyl)-N-hydroxy-2′-oxo-3,4-dihydro-1H-spiro[naphthalene-2,3′-pyrrolidine]-6-carboxamide]	≤ 100
CN1CC2(CCc3cc(C(=O)NO)ccc3C2)CC1=O (single isomer, unassigned) [Compound I-202]	≤ 100
O=C(NO)c1ccc2c(c1)CC[C@@]1(CCN(C3CCC3)C1=O)C2 (single isomer, unassigned) [Compound I-172]	≤ 100
CC(C)N1CCCC2(CCc3cc(C(=O)NO)ccc3C2)C1=O (single isomer, unassigned) [Compound I-191]	≤ 100
COc1cncc(N2CC[C@]3(CCc4cc(C(=O)NO)ccc4C3)C2=O)c1 [Compound I-143, (R)-N-hydroxy-1′-(5-methoxypyridin-3-yl)-2′-oxo-3,4-dihydro-1H-spiro[naphthalene-2,3′-pyrrolidine]-6-carboxamide]	≤ 100
Cc1ccc(CN2CCC3(CCc4cc(C(=O)NO)ccc4C3)C2=O)cc1 (stereo not drawn) [Compound I-8, N-hydroxy-1′-(4-methylbenzyl)-2′-oxo-3,4-dihydro-1H-spiro[naphthalene-2,3′-pyrrolidine]-6-carboxamide]	100 to 500
CCCN1CC[C@@]2(CCc3cc(C(=O)NO)ccc3C2)C1=O [Compound I-60, (S)-N-hydroxy-2′-oxo-1′-propyl-3,4-dihydro-1H-spiro[naphthalene-2,3′-pyrrolidine]-6-carboxamide]	100 to 500
O=C(NO)c1ccc2c(c1)CC[C@]1(CCN(c3ccc(F)cc3)C1=O)C2 [Compound I-120, (R)-1′-(4-fluorophenyl)-N-hydroxy-2′-oxo-3,4-dihydro-1H-spiro[naphthalene-2,3′-pyrrolidine]-6-carboxamide]	≤ 100
COc1ccc(N2CC[C@]3(CCc4cc(C(=O)NO)ccc4C3)C2=O)cn1 [Compound I-114, (R)-N-hydroxy-1′-(6-methoxypyridin-3-yl)-2′-oxo-3,4-dihydro-1H-spiro[naphthalene-2,3′-pyrrolidine]-6-carboxamide]	≤ 100
O=C(NO)c1ccc2c(c1)CC[C@@]1(CCN(C/C=C/c3ccccc3)C1=O)C2 [Compound I-65, (S)-1′-cinnamyl-N-hydroxy-2′-oxo-3,4-dihydro-1H-spiro[naphthalene-2,3′-pyrrolidine]-6-carboxamide]	≤ 100
O=C(NO)c1ccc2c(c1)CC[C@]1(CC(=O)N(CC3CCC3)C1)C2 (single isomer, unassigned) [Compound I-205]	≤ 100
CC(C)N1CC[C@]2(CCc3cc(C(=O)NO)ccc3C2)C1=O [Compound I-24, (R)-N-hydroxy-1′-isopropyl-2′-oxo-3,4-dihydro-1H-spiro[naphthalene-2,3′-pyrrolidine]-6-carboxamide]	≤ 100
COCCn1c(N2CC[C@@]3(CCc4cc(C(=O)NO)ccc4C3)C2=O)nc2ccccc21 [Compound I-13, (S)-N-hydroxy-1′-(1-(2-methoxyethyl)-1H-benzo[d]imidazol-2-yl)-2′-oxo-3,4-dihydro-1H-spiro[naphthalene-2,3′-pyrrolidine]-6-carboxamide]	≤ 100
CN1CCC[C@@]2(CCc3cc(C(=O)NO)ccc3C2)C1=O (single isomer, unassigned) [Compound I-179]	≤ 100
O=C(NO)c1ccc2c(c1)CC[C@]1(CCN(Cc3cccnc3)C1=O)C2 [Compound I-18, (R)-N-hydroxy-2′-oxo-1′-(pyridin-3-ylmethyl)-3,4-dihydro-1H-spiro[naphthalene-2,3′-pyrrolidine]-6-carboxamide]	≤ 100
O=C(NO)c1ccc2c(c1)CC[C@]1(CCN(c3cccc4ccccc34)C1=O)C2 [Compound I-89, (R)-N-hydroxy-1′-(naphthalen-1-yl)-2′-oxo-3,4-dihydro-1H-spiro[naphthalene-2,3′-pyrrolidine]-6-carboxamide]	≤ 100
O=C(NO)c1ccc2c(c1)CC[C@@]1(CCN(c3ccncc3Cl)C1=O)C2 [Compound I-141, (S)-1′-(3-chloropyridin-4-yl)-N-hydroxy-2′-oxo-3,4-dihydro-1H-spiro[naphthalene-2,3′-pyrrolidine]-6-carboxamide]	≤ 100
O=C(NO)c1ccc2c(c1)CCC1(CC(=O)N(Cc3ccccc3)C1)C2 (single isomer, unassigned) [Compound I-216]	≤ 100
COc1ccc(CN2CC[C@]3(CCc4cc(C(=O)NO)ccc4C3)C2=O)cc1 [Compound I-56, (R)-N-hydroxy-1′-(4-methoxybenzyl)-2′-oxo-3,4-dihydro-1H-spiro[naphthalene-2,3′-pyrrolidine]-6-carboxamide]	≤ 100
O=C(NO)c1ccc2c(c1)CC[C@]1(CC(=O)N(c3ccncc3)C1)C2 [Compound I-228, (R)-N-hydroxy-5′-oxo-1′-(pyridin-4-yl)-3,4-dihydro-1H-spiro[naphthalene-2,3′-pyrrolidine]-6-carboxamide]	≤ 100
